Results from ChEMBL document CHEMBL1201862, “PubChem BioAssay data set” (2004).
Where “and” joins values, the source holds several entries; their conditions need not be identical. Identical values can stand only once.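 Compound exposure: 48 hours, 5 concentrations, 96-well plates. Here, GI50 denotes the concentration required for 50% inhibition of growth.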 Calls of active or inactive are those of the source. Cut-off read from the data, not from the text of the source: active = GI50 up to about 1.1 µM and inactive = higher.

Experiments:
Assay in all cases: NCI anticancer screen, dose series, 48 h
[1] = test system: A549
[2] = test system: CCRF-CEM
[3] = test system: COLO 205
[4] = test system: EKVX
[5] = test system: HCC 2998
[6] = test system: HCT-116
[7] = test system: HCT-15
[8] = test system: HOP-62
[9] = test system: HOP-92
[10] = test system: HT-29
[11] = test system: IGROV-1
[12] = test system: KM12
[13] = test system: MDA-MB-231
[14] = test system: MDA-N
[15] = test system: Malme-3M
[16] = test system: NCI-H226
[17] = test system: NCI-H23
[18] = test system: NCI-H522
[19] = test system: NCI/ADR-RES
[20] = test system: OVCAR-3
[21] = test system: OVCAR-4
[22] = test system: OVCAR-5
[23] = test system: OVCAR-8
[24] = test system: RPMI-8226
[25] = test system: SF-295
[26] = test system: SK-MEL-28
[27] = test system: SK-MEL-2
[28] = test system: SK-MEL-5
[29] = test system: SK-OV-3
[30] = test system: SN12C
[31] = test system: SNB-75
[32] = test system: SW-620
[33] = test system: TK-10
[34] = test system: U-251
[35] = test system: UACC-62
[36] = test system: UO-31
[37] = test system: 786-0
[38] = test system: ACHN
[39] = test system: CAKI-1
[40] = test system: DU-145
[41] = test system: HL-60
[42] = test system: Hs-578T
[43] = test system: K562
[44] = test system: LOX IMVI
[45] = test system: M14
[46] = test system: MCF7
[47] = test system: MDA-MB-435
[48] = test system: MOLT-4
[49] = test system: NCI-H460
[50] = test system: PC-3
[51] = test system: SF-268
[52] = test system: SF-539
[53] = test system: SNB-19
[54] = test system: SR
[55] = test system: T47D
[56] = test system: UACC-257
[57] = test system: RXF 393

## COc1ccc2c(c1)[n+]([O-])c1ccccc1[n+]2[O-]
[1]
  GI50: 11 µM (inactive) and 21.7 µM (inactive)
[2]
  GI50: 22.8 µM (inactive) and 17.9 µM (inactive)
[3]
  GI50: 33.2 µM (inactive) and 19.1 µM (inactive)
[4]
  GI50: 34 µM (inactive) and 17.5 µM (inactive)
[5]
  GI50: 29.1 µM (inactive)
[6]
  GI50: 31.5 µM (inactive) and 47.2 µM (inactive)
[7]
  GI50: 15.1 µM and 28.2 µM
[8]
  GI50: 29.1 µM (inactive) and 36.8 µM (inactive)
[9]
  GI50: 47.1 µM (inactive)
[10]
  GI50: 29.9 µM (inactive) and 51.5 µM (inactive)
[11]
  GI50: 5.9 µM (inactive)
[12]
  GI50: 40.5 µM (inactive) and 22.4 µM (inactive)
[13]
  GI50: 29.7 µM (inactive) and 37.7 µM (inactive)
[14]
  GI50: 73.8 µM (inactive)
[15]
  GI50: 38.7 µM (inactive) and 37.7 µM (inactive)
[16]
  GI50: 26.4 µM (inactive) and 27.2 µM (inactive)
[17]
  GI50: 24.7 µM (inactive) and 37.5 µM (inactive)
[18]
  GI50: 12.6 µM (inactive) and 14.6 µM (inactive)
[19]
  GI50: 29.9 µM (inactive) and 53.3 µM (inactive)
[20]
  GI50: 36.1 µM (inactive) and 44.8 µM (inactive)
[21]
  GI50: 25 µM (inactive)
[22]
  GI50: 38.7 µM (inactive) and 65.9 µM (inactive)
[23]
  GI50: 18.5 µM (inactive) and 17.2 µM (inactive)
[24]
  GI50: 20.3 µM (inactive) and 19.5 µM (inactive)
[25]
  GI50: 21.6 µM (inactive) and 39.8 µM (inactive)
[26]
  GI50: 78.7 µM (inactive)
[27]
  GI50: 26.9 µM (inactive) and 21.8 µM (inactive)
[28]
  GI50: 18.4 µM (inactive) and 24.1 µM (inactive)
[29]
  GI50: 24.7 µM (inactive)
[30]
  GI50: 28.6 µM (inactive) and 21 µM (inactive)
[31]
  GI50: 70.1 µM (inactive) and 35.2 µM (inactive)
[32]
  GI50: 24.7 µM (inactive) and 29.9 µM (inactive)
[33]
  GI50: 34.1 µM (inactive) and 31.5 µM (inactive)
[34]
  GI50: 22.6 µM (inactive) and 37.4 µM (inactive)
[35]
  GI50: 23.7 µM (inactive) and 18.5 µM (inactive)
[36]
  GI50: 10.3 µM (inactive) and 10.2 µM (inactive)

## COc1cc(/C=C/C(=O)O)ccc1O [FERULATE]
[37]
  GI50: > 100 µM (inactive)
[1]
  GI50: > 100 µM (inactive)
[38]
  GI50: > 100 µM (inactive)
[39]
  GI50: > 100 µM (inactive)
[2]
  GI50: > 100 µM (inactive)
[3]
  GI50: > 100 µM (inactive)
[40]
  GI50: > 100 µM (inactive)
[4]
  GI50: > 100 µM (inactive)
[5]
  GI50: > 100 µM (inactive)
[6]
  GI50: > 100 µM (inactive)
[7]
  GI50: > 100 µM
[41]
  GI50: > 100 µM (inactive)
[8]
  GI50: > 100 µM (inactive)
[9]
  GI50: > 100 µM (inactive)
[10]
  GI50: > 100 µM (inactive)
[42]
  GI50: > 100 µM (inactive)
[11]
  GI50: > 100 µM (inactive)
[43]
  GI50: > 100 µM (inactive)
[12]
  GI50: > 100 µM (inactive)
[44]
  GI50: > 100 µM (inactive)
[45]
  GI50: > 100 µM (inactive)
[46]
  GI50: > 100 µM (inactive)
[13]
  GI50: > 100 µM (inactive)
[47]
  GI50: > 100 µM (inactive)
[14]
  GI50: > 100 µM (inactive)
[48]
  GI50: > 100 µM (inactive)
[15]
  GI50: > 100 µM (inactive)
[16]
  GI50: > 100 µM (inactive)
[17]
  GI50: > 100 µM (inactive)
[49]
  GI50: > 100 µM (inactive)
[18]
  GI50: > 100 µM (inactive)
[19]
  GI50: > 100 µM (inactive)
[20]
  GI50: > 100 µM (inactive)
[21]
  GI50: > 100 µM (inactive)
[22]
  GI50: > 100 µM (inactive)
[23]
  GI50: > 100 µM (inactive)
[50]
  GI50: > 100 µM (inactive)
[24]
  GI50: > 100 µM (inactive)
[51]
  GI50: > 100 µM (inactive)
[25]
  GI50: > 100 µM (inactive)
[52]
  GI50: > 100 µM (inactive)
[26]
  GI50: > 100 µM (inactive)
[27]
  GI50: > 100 µM (inactive)
[28]
  GI50: > 100 µM (inactive)
[30]
  GI50: > 100 µM (inactive)
[53]
  GI50: > 100 µM (inactive)
[31]
  GI50: > 100 µM (inactive)
[54]
  GI50: > 100 µM (inactive)
[32]
  GI50: > 100 µM (inactive)
[55]
  GI50: > 100 µM (inactive)
[33]
  GI50: > 100 µM (inactive)
[34]
  GI50: > 100 µM (inactive)
[56]
  GI50: > 100 µM (inactive)
[36]
  GI50: > 100 µM (inactive)

## ClCCCN(CCCCl)c1ccc(/C=N/c2cccc(Cl)c2)cc1
[37]
  GI50: 18.3 µM (inactive)
[1]
  GI50: 10.2 µM (inactive)
[38]
  GI50: 7.26 µM (inactive)
[39]
  GI50: 0.652 µM (active)
[2]
  GI50: 16.4 µM (inactive)
[3]
  GI50: 47.6 µM (inactive)
[40]
  GI50: 2.56 µM (inactive)
[4]
  GI50: 0.637 µM (active)
[5]
  GI50: 32.1 µM (inactive)
[6]
  GI50: 32.5 µM (inactive)
[7]
  GI50: 18.1 µM
[41]
  GI50: 12.6 µM (inactive)
[8]
  GI50: 18.7 µM (inactive)
[9]
  GI50: 29.2 µM (inactive)
[10]
  GI50: 23.6 µM (inactive)
[42]
  GI50: 16.1 µM (inactive)
[11]
  GI50: 29.8 µM (inactive)
[43]
  GI50: 11.8 µM (inactive)
[12]
  GI50: 20.5 µM (inactive)
[44]
  GI50: 7.57 µM (inactive)
[45]
  GI50: 29.3 µM (inactive)
[46]
  GI50: 23.5 µM (inactive)
[13]
  GI50: 12.2 µM (inactive)
[47]
  GI50: 28.8 µM (inactive)
[48]
  GI50: 14.4 µM (inactive)
[15]
  GI50: 6.22 µM (inactive)
[16]
  GI50: 2.03 µM (inactive)
[17]
  GI50: 15.5 µM (inactive)
[49]
  GI50: 9.55 µM (inactive)
[18]
  GI50: 30.5 µM (inactive)
[19]
  GI50: 11.2 µM (inactive)
[20]
  GI50: 19.1 µM (inactive)
[21]
  GI50: 9.75 µM (inactive)
[22]
  GI50: 22.1 µM (inactive)
[23]
  GI50: 6.95 µM (inactive)
[50]
  GI50: 10.7 µM (inactive)
[24]
  GI50: 17.2 µM (inactive)
[57]
  GI50: 14.2 µM (inactive)
[51]
  GI50: 21.7 µM (inactive)
[25]
  GI50: 15 µM (inactive)
[52]
  GI50: 53.2 µM (inactive)
[26]
  GI50: 55.8 µM (inactive)
[27]
  GI50: 26.7 µM (inactive)
[29]
  GI50: 49.5 µM (inactive)
[30]
  GI50: 10.4 µM (inactive)
[53]
  GI50: 30.1 µM (inactive)
[31]
  GI50: 8.93 µM (inactive)
[32]
  GI50: 12.9 µM (inactive)
[55]
  GI50: 7.11 µM (inactive)
[33]
  GI50: 4.48 µM (inactive)
[34]
  GI50: 26.9 µM (inactive)
[56]
  GI50: 29.4 µM (inactive)
[35]
  GI50: 1.49 µM (inactive)
[36]
  GI50: 15.8 µM (inactive)
